From patent US20260306633A1, “A COMBINATION THERAPY FOR CANCER TREATMENT” (Purdue Research Foundation, priority 2023, published 2026)
Like-named read-outs stand apart in the source and are kept apart here.

What was measured:
TNBC BT-549 cells = assay: Cell survival / cell inhibition (MTT cell cytotoxicity assay) after 24 h treatment with photosensitizer and/or chemotherapeutic agent, dark or light-irradiated; format: cell-based, human; conditions: for viability at 1 µM: high end of 100-1000 nM; for average decrease in cell survival upon light irradiation compared to unirradiated cells, drug only: drug alone, light vs dark; for viability at 0.01 µM: low end of 10-100 nM (so in the source)
Description: Human mammary epithelial carcinoma cell lines purchased from the American Type Culture Collection BT-549 (ATCC HTB-122) were cultured according to ATCC protocol. BT-549 cells were grown in RPMI 1640 containing 0.023 IU/mL insulin and supplemented with 10% fetal bovine serum (FBS). Cells were grown to 80-90% confluence in 75-cm^2 culture flasks (Corning) for 4-5 days in a humidified incubator (Fisher Scientific Isotemp) with 5% CO2 at 37° C. During the incubation period, growth media was changed once with fresh pre-warmed media (pH 7.2). To harvest the cells, old growth media was aspirated out, and 3 mL 0.25% trypsin solution (Thermo Sci Hyclone) were added. The cells were incubated for 5 minutes, and the cell pellet after centrifugation was resuspended in 3 mL media, broken up gently, then 1 mL of suspended cells was transferred into a new T75 cell culture flask containing pre-warmed media (20 mL) for further culturing.
(§1) Cells were grown to confluence in a 96-well plate (9×10^3 cells/well) and co-treated for 24 hours with synthesized photosensitizers (PSs) and chemotherapeutic agents of varying concentrations ranging from 5 nM to 50 μM) in growth media from a stock solution of 10 mM in DMSO (dimethyl sulfoxide, Fisher). After 24-hour treatment, old growth media containing the PSs or compounds were aspirated out and replaced with fresh media. Plates were then positioned below a non-coherent LumaCare LC-122 650 nm light source for 1 minute at an energy fluence rate of 0.96 J/cm^2 and a power of 16 mW/cm^2 (measured using a Newport optical power meter Model 840). Unirradiated cells served as control samples. The following day, cells were washed with pre-warmed PBS, and 11MTT (3-[4,5-dimethyl-thiazol-2-yl]-2.5-diphenyltetrazolium bromide, Sigma, 0.3 mg/mL) in PBS was added to each well. Samples were allowed to incubate for additional 2 hours, after which dark blue crystals formed. DMSO was added to each well and plates were shaken at room temperature for 1 hour to dissolve the purplish-blue formazan crystals. Absorbance values at 570 nm were measured on a microplate reader (BioRad 550). Cell survival was calculated based on the absorbance of the untreated cells alone (as control) and were directly proportional to the number of viable cells in culture. Results were reported as the mean±SD of triplicate measurements.
The unmetallated PS and the indium complexes were used.
Light dose corresponds to an energy fluence rate of 0.96 J/cm^2 used.
Power of 16 mW/cm^2 used.
Cell inhibition in TNBC cells is based on the cell survival (MTT) assay of the binary therapy, blending the effect of PDT and chemotherapeutic agents. […] MePheo serves as a control compound. TNBC cells were then exposed to light after binary treatment for 24 hours.

human TNBC BT-549 cells = assay: Fluorescence microscopy (Hoechst 33258) of cell morphology / cell death pathway; format: cell-based; conditions: fluorouracil 25 μM, dark (FIG. 18U)
Description: Grayscale images of cells stained with Hoechst 33258. Morphology of (A) untreated unirradiated cells, sham control; (B) illuminated cells; (C-E) cells treated with: PSs (InCLA, CBTN, and CPA) and paclitaxel in the dark; (F-H) PSs, followed by 1 minute light exposure; (I) paclitaxel unirradiated; (J-L) PSs and paclitaxel in the dark; (M-O) PSs co-treated with paclitaxel, then light-exposed; (P-Q) PSs co-treated with doxorubicin, then irradiated; (R) PSs and cisplatin, dark; (S-T) PSs and cisplatin, irradiated; (U) fluorouracil, dark; (V) InCLA with fluorouracil in the dark; (W) light-exposed and, (X-Y) PSs with methotrexate with light. Inserts indicate enlarged view. […] Light dose in 1 minute=0.96 J cm^−2; in 30 seconds=0.48 J cm^−2. Concentrations: PSs=50 nM; paclitaxel=50 nM; doxorubicin=500 nM; cisplatin=25 μM; fluororuracil=25 μM; and, methotrexate=500 nM.
Cells (1 mL aliquots) obtained from a diluted cell suspension were seeded into each well (1.7 cm^2, 8×10^3 cells/well) of a 4-well culture slide (BD Biosciences) and grown to confluence in 5% CO2 at 37° C. for 3-4 days for attachment to the substratum. After aspirating the old growth media, 1 mL of the photosensitizer and chemotherapeutic agents (with appropriate concentrations) in fresh pre-warmed media at 37° C. was added to each well. After compound treatment for 24 hours, cells were washed twice with 1 mL fresh growth media, and then irradiated with light using LumaCare LC-122 as described above. Cells were stained in the dark with Hoechst 33258 (Molecular Probes) in pre-warmed media for 10 minutes at 37° C., washed twice with filtered PBS, then fixed with filtered paraformaldehyde for 15 minutes in the incubator. After thorough liquid aspiration, the wells were removed and allowed to air dry in the dark for 1 hour. Slides were protected with coverslips, whose edges were sealed using clear fast-drying nail polish and allowed to dry at room temperature in the dark for 30 minutes. Images were recorded using fluorescence microscopy (DAPI for Hoechst 350-390 nm excitation and 460-490 nm emission filters) using an upright fluorescence microscope with Retiga imaging 2000R (Nikon Optiphot-2, 20× and 40×) and an image processing Nikon NIS-Elements V4.0 Qimaging software.
To determine the preferred cell death pathway for the binary chemophotodynamic therapy, tracking the hallmarks of apoptosis or necrosis was accomplished using a nuclear stain to monitor chromatin condensation and cellular contraction. TNBC cells are spindle-shaped and nearly round with intact cytoplasm, diffused chromatin, distinct cellular membrane, and large oval nuclei staining dark blue with the nuclear stain (FIG. 18A-B).

TNBC cells [1] = assay: Combination index (CI) of binary therapy, Chou-Talalay method, CompuSyn software; format: cell-based, human
Description: (§2) The calculated CI values are based on 50 nM concentration for the PSs, 50 nM paclitaxel, 500 nM doxorubicin, 25 μM cisplatin, 25 μM fluorouracil, and 500 nM methotrexate.
as §1
The combination index (CI) for the binary treatment of TNBC cells with a PS and a chemotherapeutic drug was calculated based on the Chou-Talalay method using CompuSyn software. […] The unified dynamics algorithm uses a minimum of dose-data points to fit the general MAL theory.
as §2

TNBC cells [2] = assay: as above; format: cell-based, human; conditions: PS 50 nM + methotrexate 500 μM (footnote 500 nM)

Compound: COc1cccc2c1C(=O)c1c(O)c3c(c(O)c1C2=O)C[C@@](O)(C(=O)CO)C[C@@H]3O[C@H]1C[C@H](N)[C@H](O)[C@H](C)O1 [doxorubicin, reference compound]
- viability at 0.5 µM (TNBC BT-549 cells; Homo sapiens, BT-549, 24 h, doxorubicin 500 nM, dark, read-out: cell survival, drug only): 81%
- viability at 1 µM (TNBC BT-549 cells; Homo sapiens, BT-549, 24 h, doxorubicin, dark, read-out: cell survival, drug only (end of decrease)): 70%
- viability at 0.1 µM (TNBC BT-549 cells; Homo sapiens, BT-549, 24 h, doxorubicin, dark, low end of 100-1000 nM, read-out: cell survival, drug only (start of decrease)): 100%
- viability at 1 µM (TNBC BT-549 cells; Homo sapiens, BT-549, 24 h, doxorubicin, light, read-out: cell survival, drug only (end of decrease)): 72%
- viability at 0.1 µM (TNBC BT-549 cells; Homo sapiens, BT-549, 24 h, doxorubicin, light, low end of 100-1000 nM, read-out: cell survival, drug only (start of decrease)): 95%
- average decrease in cell survival upon light irradiation compared to unirradiated cells, drug only (TNBC BT-549 cells): 2-5%

Compound: O=c1[nH]cc(F)c(=O)[nH]1 [fluorouracil, 5-Fluorouracil, reference compound]
- viability at 25 µM (TNBC BT-549 cells; Homo sapiens, BT-549, 24 h, fluorouracil 25 μM, dark, read-out: cell survival, drug only): 64%
- viability at 0.1 µM (TNBC BT-549 cells; Homo sapiens, BT-549, 24 h, fluorouracil, dark, high end of 10-100 nM (so in the source), read-out: cell survival, drug only (end of decrease)): 65%
- viability at 0.01 µM (TNBC BT-549 cells; Homo sapiens, BT-549, 24 h, fluorouracil, dark, read-out: cell survival, drug only (start of decrease)): 87%
- viability at 0.1 µM (TNBC BT-549 cells; Homo sapiens, BT-549, 24 h, fluorouracil, light, high end of 10-100 nM (so in the source), read-out: cell survival, drug only (end of decrease)): 68%
- viability at 0.01 µM (TNBC BT-549 cells; Homo sapiens, BT-549, 24 h, fluorouracil, light, read-out: cell survival, drug only (start of decrease)): 85%
- average decrease in cell survival upon light irradiation compared to unirradiated cells, drug only (TNBC BT-549 cells): 9%
- cell morphology, fluorouracil, dark (human TNBC BT-549 cells): did not affect the cellular morphology

Compound: C=Cc1c(C)c2cc3nc(c4c5[nH]c(cc6nc(cc1[nH]2)C(C)=C6CC)c(C)c5C(=O)[C@@H]4C(=O)OC)[C@@H](CCC(=O)OC)[C@@H]3C [MePheo, methyl pheophorbide, reference compound]
- cell inhibition (%), combination with cisplatin (TNBC BT-549 cells; PS 100 nM + cisplatin 25 μM, 24 h, light 0.96 J cm−2): 39%
- effect of added cisplatin compared to cisplatin-treated cell viability (TNBC BT-549 cells; PS 100 nM + cisplatin 25 μM, light): reduced cell survival
- cell inhibition (%), combination with doxorubicin (TNBC BT-549 cells; PS 100 nM + doxorubicin 500 nM, 24 h, light 0.96 J cm−2): 36%
- cell survival, co-treatment with fluorouracil in the dark (TNBC BT-549 cells; PS 100 nM + fluorouracil 25 μM, 24 h, dark): 61%
- cell inhibition (%), combination with fluorouracil (TNBC BT-549 cells; PS 100 nM + fluorouracil 25 μM, 24 h, light 0.96 J cm−2): 34%
- cell inhibition (%), combination with methotrexate (TNBC BT-549 cells; PS 100 nM + methotrexate 500 nM, 24 h, light 0.96 J cm−2): 40%
- cell survival, co-treatment with paclitaxel in the dark (TNBC BT-549 cells; PS 100 nM + paclitaxel 50 nM, 24 h, dark): 46%
- cell inhibition (%), combination with paclitaxel (TNBC BT-549 cells; PS 100 nM + paclitaxel 50 nM, 24 h, light 0.96 J cm−2): 55%
- cytotoxicity in the absence of light, PS alone (TNBC BT-549 cells; PS 500 nM, dark): No cytotoxicity
- cell viability reduction (difference) vs PS alone (TNBC BT-549 cells; PS at lower concentration (CPA: 50 nM) + methotrexate 500 nM, light): 10%
- combination index (CI) with cisplatin (TNBC cells [1]; PS 50 nM + cisplatin 25 μM): 6.10
- synergism vs additive vs antagonism effect with cisplatin (TNBC cells [1]; PS 50 nM + cisplatin 25 μM): (SA) (SA (3.3-10), strong antagonism)
- combination index (CI) with doxorubicin (TNBC cells [1]; PS 50 nM + doxorubicin 500 nM): 6.37
- synergism vs additive vs antagonism effect with doxorubicin (TNBC cells [1]; PS 50 nM + doxorubicin 500 nM): (SA) (SA (3.3-10), strong antagonism)
- combination index (CI) with fluorouracil (TNBC cells [1]; PS 50 nM + fluorouracil 25 μM): 17.96
- synergism vs additive vs antagonism effect with fluorouracil (TNBC cells [1]; PS 50 nM + fluorouracil 25 μM): (VSA) (VSA (>10), very strong antagonism)
- combination index (CI) with paclitaxel (TNBC cells [1]; PS 50 nM + paclitaxel 50 nM): 13.27
- synergism vs additive vs antagonism effect with paclitaxel (TNBC cells [1]; PS 50 nM + paclitaxel 50 nM): (VSA) (VSA (>10), very strong antagonism)
- combination index (CI) with methotrexate (TNBC cells [2]): 7.79
- synergism vs additive vs antagonism effect with methotrexate (TNBC cells [2]): (SA) (SA (3.3-10), strong antagonism)
